Results from patent US20050256051A1, “Nuclear receptor-mediated introduction of a PNA into cell nuclei” (The Population Council, Inc., priority 2001, published 2005).

Legend:
[1] = Solubility of PNA constructs in culture medium and stock solution; type: physicochemical; conditions: cell culture medium (RPMI complete medium); higher concentrations precipitate; read-out: maximum solubility in RPMI complete medium
Method: Table 1 contains a description of the experimental PNAs used in this study, including their modifications and corresponding abbreviations. In particular, PNA-mycwt is a 17-mer PNA anti-gene for the unique sequence of c-myc, bases 4528-4544, in its II exon (21). […] All the other PNAs listed in Table 1 had solubilities in excess of 500 μM (stock solution described above), far above the 10 μM concentration used in most experiments.

LNCaP cells [2] = assay: Cell viability by Trypan blue exclusion, LNCaP cells
Method: (§1) Two prostatic carcinoma derived cell lines were used (LNCaP and DU145 cultured in RPMI-1640, 10% charcoal-stripped fetal calf serum). Their features and culture conditions were as previously detailed (26, 27). PNA stock solutions (500 μM in H2O neutralized with NaOH) were added as an aliquot to the culture medium to their final concentration. […] In the gene regulation experiments, PNAmycwt, PNAmycwt-T, PNAmycmut-T, and PNAmycwt-NLS were present at a final 10 μM concentration in the culture medium, for 0, 24, 48, or 72 hours. Cell growth was measured by total cell counts from three replicate flasks (1.3-5.0×10^6 per each 75 cm^2/flask) while cell viability was determined by Trypan blue exclusion. The standard deviation was calculated both for cell growth and viability keeping into account the data from all the experiments (minimum of three each).
(§2) LNCaP and DU145 cells were treated with a 10 μM concentration of PNA constructs in the culture medium (PNA-mycwt-T (Δ), PNA-mycwt, PNA-mycmut, PNA-mycmut-T (●) as negative controls and PNA-mycwt-NLS (▪) as positive control). Cell numbers (FIGS. 3A and C) and viability (FIGS. 3B and D) were estimated, as described above, at increasing times of exposure to different PNA constructs.

LNCaP cells [3] = assay: Cell growth by total cell counts, LNCaP cells; type: cell-based, human; conditions: 10 μM, 72 hours
Method: as §1, §2

c-myc gene [4] = assay: MYC protein by Western blot normalized to H2b, DU145 cells; type: cell-based, human; conditions: 10 μM
Method: (§3) Total cellular proteins samples were derived from 10^7 cells solubilized in 200 μl Urea lysis buffer (9M Urea, 50 mM Tris, pH 7.0) with brief sonication at 0° C. as needed. Western blot analysis for MYC expression was performed as described previously (29). Briefly, total cellular proteins were electrophoretically separated using 10% acrylamide, 0.4% (w/v) SDS gels and then transferred to a nitrocellulose membrane (Hybond C-extra, Amersham). The membrane was then cut at a […] molecular weight level (using as reference Kaleidoscope pre-stained standards, BioRad). Both membrane halves were incubated in parallel overnight with a primary antibody (top with anti-myc antibody, 9E10 Calbiochem, San Diego, Calif.; bottom with anti-H2b antibody kindly provided by Dr. M. Romani, IST, Genova, I). The membranes were washed and exposed to a rabbit anti-mouse IgG (Dakopatts, Glostrup, DK) at room temperature for 1 h. MYC and H2b bands were visualized by the incubation of the membrane with alkaline phosphatase-conjugated goat anti-rabbit IgG (Sigma) at room temperature for 2 h followed by exposure to the 5-bromo-4-chloro-3-indolylphosphate/nitro blue tetrazolium substrate developer (BCIP/NBT, Sigma).
(§4) The stained and reassembled Western blot images, from triplicate experiments, were digitally acquired, elaborated in Photoshop, and then quantified using Scion-Image. MYC concentrations were normalized to the matching histone H2b concentrations (a protein that remains constant throughout the treatment described). Therefore MYC concentration is reported as a ratio to an H2b standard. For Western blot analyses, the average error was 14.0% (range 8.3 to 25.1%) in the LNCaP experiments and for those with DU145 averaged 10.2% (range 8.5 to 20.3%).
As shown in Fugure 4A, the amount of MYC protein was evaluated by Western blot analysis of total nuclear proteins. […]

c-myc gene [5] = assay: MYC protein by Western blot normalized to H2b, LNCaP cells; type: cell-based, human; conditions: for change in MYC: 2 μM, preliminary experiments
Method: as §3, §4
As shown in Fugure 4A, the amount of MYC protein was evaluated by Western blot analysis of […]. The effects of PNAs on expression of the c-myc gene in LNCaP and DU145 cells were also obtained by immunochemical measurement of the MYC protein content of cell lysates, using data obtained from at least a triplicate run of each set of immunostained Western blots. In each case, the MYC content of the whole cell lysate was compared to that of histone H2b, a protein that remains constant throughout the treatment described. The constancy of H2b made it possible to represent variations in MYC protein concentration normalized to the H2b content in the same lysate.

Burkitt's lymphoma cells = conditions: 10 μM in the cell medium; cited from earlier work
DU145 cells [6] = assay: Cell growth by total cell counts, DU145 cells; type: cell-based, human; conditions: 10 μM, 72 h
Method: as §1, §2

DU145 cells [7] = assay: Cell viability by Trypan blue exclusion, DU145 cells; type: cell-based, human; conditions: 10 μM, up to 72 h, compared with the about 20% decline seen in LNCaP
Method: as §1, §2

## CCN(CC)c1ccc2c(-c3ccccc3C(=O)NCCCC[C@H](NC(=O)COCCOCCNC(=O)CN(CCNC(=O)CN(CCNC(=O)CN(CCNC(=O)CN(CCNC(=O)CN(CCNC(=O)CN(CCNC(=O)CN(CCNC(=O)CN(CCNC(=O)CN(CCNC(=O)CN(CCNC(=O)CN(CCNC(=O)CN(CCNC(=O)CN(CCNC(=O)CN(CCNC(=O)CN(CCNC(=O)CN(CCNC(=O)CN(CCN)C(=O)Cn3cc(C)c(=O)[nH]c3=O)C(=O)Cn3ccc(N)nc3=O)C(=O)Cn3cnc4c(N)ncnc43)C(=O)Cn3cnc4c(N)ncnc43)C(=O)Cn3ccc(N)nc3=O)C(=O)Cn3cnc4c(=O)[nH]c(N)nc43)C(=O)Cn3cc(C)c(=O)[nH]c3=O)C(=O)Cn3cc(C)c(=O)[nH]c3=O)C(=O)Cn3cnc4c(N)ncnc43)C(=O)Cn3cnc4c(=O)[nH]c(N)nc43)C(=O)Cn3ccc(N)nc3=O)C(=O)Cn3cc(C)c(=O)[nH]c3=O)C(=O)Cn3cc(C)c(=O)[nH]c3=O)C(=O)Cn3ccc(N)nc3=O)C(=O)Cn3cnc4c(N)ncnc43)C(=O)Cn3ccc(N)nc3=O)C(=O)Cn3ccc(N)nc3=O)C(=O)NCC(N)=O)c3ccc(=[N+](CC)CC)cc-3oc2c1 [PNA-mycwt-R]
[1]
  solubility: 2 µM

## PNA-mycwt-T: c-myc anti-gene PNA (SEQ ID NO:1) linked to dihydrotestosterone at N-terminal (TCAACGTTAGCTTCACC; all peptide nucleic acid (PNA); dihydrotestosterone conjugated at PNA N-terminus)
LNCaP cells [2]; LNCaP cells, 10 μM, 72 h
  decline in cell viability: about 20%
LNCaP cells [3]
  cell growth: 34 % of control
c-myc gene [4]
  effect on MYC protein / expression: unaltered
c-myc gene [5]; 10 μM
  effect on MYC protein / expression: significant and persistent decrease
c-myc gene [5]; 10 μM, 24 h
  change in MYC content: −63%
c-myc gene [5]; 10 μM, 48 hours
  change in MYC content: −50%
c-myc gene [5]; 10 μM, 72 hours
  change in MYC content: −42%

## CCN(CC)c1ccc2c(-c3ccccc3C(=O)NCCCC[C@H](NC(=O)COCCOCCNC(=O)CN(CCNC(=O)CN(CCNC(=O)CN(CCNC(=O)CN(CCNC(=O)CN(CCNC(=O)CN(CCNC(=O)CN(CCNC(=O)CN(CCNC(=O)CN(CCNC(=O)CN(CCNC(=O)CN(CCNC(=O)CN(CCNC(=O)CN(CCNC(=O)CN(CCNC(=O)CN(CCNC(=O)CN(CCNC(=O)CN(CCNC(=O)COCCOCCNC(=O)CCC(=O)O[C@H]3CC[C@H]4[C@@H]5CC[C@H]6CC(=O)CC[C@]6(C)[C@H]5CC[C@]34C)C(=O)Cn3cc(C)c(=O)[nH]c3=O)C(=O)Cn3ccc(N)nc3=O)C(=O)Cn3cnc4c(N)ncnc43)C(=O)Cn3cnc4c(N)ncnc43)C(=O)Cn3ccc(N)nc3=O)C(=O)Cn3cnc4c(=O)[nH]c(N)nc43)C(=O)Cn3cc(C)c(=O)[nH]c3=O)C(=O)Cn3cc(C)c(=O)[nH]c3=O)C(=O)Cn3cnc4c(N)ncnc43)C(=O)Cn3cnc4c(=O)[nH]c(N)nc43)C(=O)Cn3ccc(N)nc3=O)C(=O)Cn3cc(C)c(=O)[nH]c3=O)C(=O)Cn3cc(C)c(=O)[nH]c3=O)C(=O)Cn3ccc(N)nc3=O)C(=O)Cn3cnc4c(N)ncnc43)C(=O)Cn3ccc(N)nc3=O)C(=O)Cn3ccc(N)nc3=O)C(=O)NCC(N)=O)c3ccc(=[N+](CC)CC)cc-3oc2c1 [PNA-mycwt-TR]
[1]
  solubility: 2 µM
c-myc gene [5]; 24 hours
  change in MYC: −20%
c-myc gene [5]; 48 h
  change in MYC: −30%
c-myc gene [5]; 72 h
  change in MYC: −30%

## PNA-mycwt-NLS: c-myc anti-gene PNA (SEQ ID NO:1) linked to SV40 Nuclear Localization Signal peptide PKKKRKV; positive control (TCAACGTTAGCTTCACC; all peptide nucleic acid (PNA); further chemistry not fully specified) [reference compound]
LNCaP cells [2]; 10 µM
  decline in cell viability: about 20%
LNCaP cells [3]
  cell growth: 34 % of control
c-myc gene [4]; 72 hours, linear inhibition
  inhibition of MYC: about 65%
c-myc gene [5]; 10 μM, 72 h, linear decrease
  decrease in MYC content: 52%
Burkitt's lymphoma cells
  cell viability: small decrease
  inhibition of MYC expression: maximum inhibition
DU145 cells [6]
  inhibition of cell growth: 36%
DU145 cells [7]
  effect on cell viability: same magnitude and timing

## PNA-mycwt: 17-mer c-myc anti-gene PNA, TCA ACG TTA GCT TCA CC (SEQ ID NO:1), vector-free (TCAACGTTAGCTTCACC; all peptide nucleic acid (PNA); further chemistry not fully specified)
c-myc gene [4]
  effect on MYC protein / expression: unaltered
c-myc gene [5]; 10 μM
  effect on MYC protein / expression: unchanged
